Results reported in US6071944A, “Method of treatment of pigmented cancer cells utilizing photodynamic therapy” (Bowling Green State University, priority 1997, dated 2000).
Entries after “also recorded” stand apart in the source; their conditions may differ.

Experiments:
B16 pigmented melanoma = assay: Photodynamic therapy and high peak power irradiation studies: tumour regrowth of B16 pigmented melanoma; type: in vivo, C57 mice
Procedure: Female C57/BL6 and BALB/C mice (18-20 g body weight) obtained from Harlan Spraque Dawley, Inc. (Indianapolis, Ind.) were used as experimental models. B16 pigmented melanoma (the B16 cell line was obtained from American Type Culture Collection) was subcutaneously transplanted into the upper flank by injecting […] of a sterile cell suspension in PBS. The cell line was cultured in Dulbecco's modified minimal essential medium supplemented with 10% fetal calf serum. The cell culture was maintained at 37° C. in a humidified atmosphere of 5% CO2 in air. All of our experiments were performed at 5-7 days after injection of B16 melanoma cells, when the tumor volume was in the range of 0.02-0.04 cm^3 with an external diameter of 0.4-0.6 cm and a depth of 0.15-0.2 cm.
When the tumor diameter was in the range of 0.4-0.6 cm, groups of 7-8 B16 melanoma bearing mice were irradiated with 1064 nm light from the Nd: YAG laser at 500 or 650 mJ per pulse (HPP). In one group of mice at 24 h after isoBO--SiNc injection (1 mg/kg) the tumor area was exposed to 774 nm light from a dye laser which was operated at a fluence rate of 300 mW/cm^2 for a total light fluence of 520 J/cm^2. This PDT treatment was performed, in other two groups, also before or after the tumors had been exposed to 1064 nm light from the Nd: YAG (650 mJ). Another group of 8 mice was treated with PDT (isoBO--SiNc 1 mg/kg, 300 mW/cm^2, 520 J/cm^2) preceded by HPP (1064 nm, 650 mJ) and retreated in the same way 10 days later, when the tumors were regrowing.
In a parallel set of experiments, a sequential treatment involving HPP and PDT (with the same irradiation conditions mentioned above) was followed by an immediate further irradiation at 550 mW/cm^2 and 200 j/cm^2 from the same 774 nm light. For each group the effectiveness of the treatment was evaluated by comparing the rate of tumor growth of the irradiated mice with that observed for control mice transplanted simultaneously with the phototreated mice but not exposed to light and not injected with isoBO--SiNc. The tumor size was measured daily by means of a caliper. Individual tumor volumes (V) were calculated by assuming a hemiellipsoidal structure for the tumor nodule and measuring the two perpendicular axes (a and b) and the height (c). Application of the relationship V 2/3(a/2×b/2×c) provided the tumor volume. The time to reach a defined tumor volume was calculated for the individual tumors.
Special attention was paid to the recoveries obtained at 24 h and 48 h after injection since these time intervals correspond with the maximum isoBO--SiNc accumulation in a variety of transplanted tumors and are generally used for PDT. The data obtained for control mice were in good agreement with those previously found in our laboratory. […] On the basis of the above described findings, a PDT experiment (776 nm; 300 mW/cm^2 -520 J/cm^2) was performed at 24 h post injection, immediately after HPP irradiation with a single 650 mJ pulse of 1064 nm light.
HPP: High Peak Power irradiation from Nd: YAG laser, 1064 nm, […] per
PDT: Photodynamic Therapy from dye laser, 774 nm, 300 mW/cm^2, 520
PTT: Photothermal Therapy from dye laser, 774 nm, 550 mW/cm^2, 200
*Difference between the growth time for treated and control mice. The
growth time is the time interval for the tumour to grow to a volume of 1
cm^3 from the size at the time of irradiation (0.03-0.04 cm^3).
The growth time of control mice was 11 days.

[1] = parameters: species or system C57 mice; settings: mouse, in vivo, iv, 1 mg/kg, 3 h
Procedure: (§1) SiNc incorporated into DPPC liposomes was injected at a dose of 1 mg/kg body weight into the caudal vein of C57 mice bearing the B16 pigmented melanoma. Three groups of mice (three mice per each time point) were used: (a) unirradiated control mice; (b) mice injected immediately after irradiation with the Nd: YAG laser (1064 nm, one pulse, 650 mJ); (c) mice injected at 24 h or 48 h before irradiation under the same conditions indicated for group (b). In all cases, at 3, 24 and 48 h after injection of isoBO--SiNc (groups a and b) and immediately after irradiation (group c), the mice were sacrificed by prolonged exposure to ether vapor. The blood was rapidly taken, centrifuged at 3000 rpm for 10 min. to remove the erythrocytes, and the serum was analyzed for its isoBO--SiNc content by a spectrophotofluorimetric procedure (4) using 690 nm as the excitation wavelength. The liver, tumor and peritumoral skin (namely an area with a 0.5 cm width surrounding the tumor) were excised and their isoBO--SiNc content was determined spectrophotofluorimetrically as previously described (4,5).
The pharmacokinetic behavior of systematically injected isoBO--SiNc in unirradiated and 1064 nm-irradiated (650 mJ, one pulse) C57 mice is shown in Table 1.
C = control mice (mice not irradiated) […]
Values ± SD; three mice were independently analyzed each time, with th
exception of I where six mice were analyzed.

[2] = Effect of 1064 nm light on the photosensitizer (recovery, group II); type: in vivo, C57 mice; settings: injected 24 and 48 h before irradiation
Procedure: as §1
II = mice injected at 24 and 48 h before irradiation (1064 nm, 650 mJ, 1
Special attention was paid to the recoveries obtained at 24 h and 48 h after injection since these time intervals correspond with the maximum isoBO--SiNc accumulation in a variety of transplanted tumors and are generally used for PDT. […]

Amelanotic melanoma = settings: cited from earlier work
pigmented melanoma = settings: very virulent pigmented melanoma; cited from earlier work

Recovery of isoBO-SiNc from selected tissues: peritumoural skin [1]	Compound	delay of tumor regrowth (B16 pigmented melanoma; 1 mg/kg, PDT 300 mW/cm^2, 520 J/cm^2, 776 nm diode laser immediately after 1064 nm irradiation) [days]	Mice tumour free time (B16 pigmented melanoma; HPP + PDT) [days]	Mice tumour free time (B16 pigmented melanoma; HPP + PDT + HPP + PDT (retreated 10 days later)) [days]	Regrowth delay (B16 pigmented melanoma; HPP + PDT + HPP + PDT (retreated 10 days later), growth time to 1 cm^3 vs control mice) [days]	Mice tumour free time (B16 pigmented melanoma; HPP + PDT + PTT (774 nm, 550 mW/cm^2, 200 J/cm^2)) [days]	Regrowth delay (B16 pigmented melanoma; HPP + PDT + PTT, growth time to 1 cm^3 vs control mice) [days]	Regrowth delay (B16 pigmented melanoma; HPP + PDT, growth time to 1 cm^3 vs control mice) [days]	tumor response to combined HPP and PDT (B16 pigmented melanoma; HPP irradiation followed by PDT)	Mice tumour free time (B16 pigmented melanoma; PDT (774 nm, 300 mW/cm^2, 520 J/cm^2), 1 mg/kg) [days]	animals essentially tumor-free post-PDT (B16 pigmented melanoma; PDT (776 nm; 300 mW/cm^2, 520 J/cm^2) 24 h post injection, immediately after HPP 650 mJ pulse, FIG. 3) [days]	Mice tumour free time (B16 pigmented melanoma; PDT + HPP (1064 nm Nd:YAG, 650 mJ per pulse)) [days]	Regrowth delay (B16 pigmented melanoma; PDT + HPP, growth time to 1 cm^3 vs control mice) [days]	delay of tumor regrowth (B16 pigmented melanoma; PDT under identical conditions without the pre-irradiation) [days]	Regrowth delay (B16 pigmented melanoma; PDT, difference in growth time to 1 cm^3 between treated and control mice) [days]	effect of 1064 nm irradiation on recovery / integrity of the photosensitizer [2]	response of amelanotic melanoma to Photofrin-PDT (Amelanotic melanoma)	response of pigmented melanoma to PDT (pigmented melanoma)
0.44 ± 0.1 μg of drug per g	CCCCCCCCCCCCCCCCCC[Si]([O-])(CC(C)C)CC(C)C.CCCCCCCCCCCCCCCCCC[Si]([O-])(CC(C)C)CC(C)C.[Si+4].c1ccc2cc3c(cc2c1)-c1nc2nc(nc4[n-]c(nc5[n-]c(nc-3n1)c1cc3ccccc3cc51)c1cc3ccccc3cc41)-c1cc3ccccc3cc1-2 [isoBO-SiNc, Bis(di-isobutyloctadecylsiloxy)-2,3-naphthalocyanato silicon]	11	9	21	27	22	34.6	16.4	remarkable retardation in tumor growth rate; also recorded: significant tumor response which is markedly larger than that obtained with either treatment alone	2	~11	2	7	4	6.3	no appreciable effect on the recovery; also recorded: not affected by 1064 nm light		
	Photofrin																successfully treated	poorly responsive
